Experimental data as given in patent US5843889A, “Glycopeptide antibiotic derivatives” (Eli Lilly and Company, priority 1997, dated 1998).
In brackets after ≈: the same amount, converted by molar mass.

Columns and labels:
Assay in all cases: MIC, standard broth micro-dilution assay
Type in all cases: cell-based
[1] = system: Entercoccus gallinarum 245
Method: (§1) The formula I compounds have in vitro and in vivo activity against Gram-positive pathogenic bacteria. The MIC's were determined using a standard broth micro-dilution assay.

[2] = system: Entercoccus faecalis 2041
Method: as §1

Entercoccus faecalis 276 = system: Entercoccus faecalis 276
Method: as §1

Row | Compound | MIC [1] [µg/mL] | MIC [2] [µg/mL] | MIC (Entercoccus faecalis 276) [µg/mL]
1 | CN[C@H](CC(C)C)C(=O)N[C@H]1C(=O)N[C@@H](CC(N)=O)C(=O)N[C@H]2C(=O)N[C@H]3C(=O)N[C@H](C(=O)N[C@H](C(=O)O)c4cc(O)cc(O)c4-c4cc3ccc4O)[C@H](O[C@H]3C[C@](C)(N)[C@@H](O)[C@H](C)O3)c3ccc(c(Cl)c3)Oc3cc2cc(c3O[C@@H]2O[C@H](CO)[C@@H](O)[C@H](O)[C@H]2O[C@H]2C[C@](C)(NCc3cccc(-c4ccccc4)c3)[C@@H](O)[C@H](C)O2)Oc2ccc(cc2Cl)[C@H]1O [Compound 91, 3-phenylbenzyl] | 2 (≈ 1.14 µM) | ≤ 0.06 | ≤ 0.06
2 | CCCCCCCCCOc1ccc(CNC2(C)CC(OC3C(Oc4c5cc6cc4Oc4ccc(cc4Cl)C(OC4CC(C)(N)C(O)C(C)O4)C4NC(=O)C(NC(=O)C6NC(=O)C(CC(N)=O)NC(=O)C(NC(=O)C(CC(C)C)NC)C(O)c6ccc(c(Cl)c6)O5)c5ccc(O)c(c5)-c5c(O)cc(O)cc5C(C(=O)O)NC4=O)OC(CO)C(O)C3O)OC(C)C2O)cc1 (stereo not drawn) [Compound 8, 4-nonyloxybenzyl] | 8 (≈ 4.38 µM) | 4 (≈ 2.19 µM) | 4 (≈ 2.19 µM)
3 | CNC(CC(C)C)C(=O)NC1C(=O)NC(CC(N)=O)C(=O)NC2C(=O)NC3C(=O)NC(C(=O)NC(C(=O)O)c4cc(O)cc(O)c4-c4cc3ccc4O)C(OC3CC(C)(N)C(O)C(C)O3)c3ccc(c(Cl)c3)Oc3cc2cc(c3OC2OC(CO)C(O)C(O)C2OC2CC(C)(NCCCCCCCCOc3ccc(-c4ccccc4)cc3)C(O)C(C)O2)Oc2ccc(cc2Cl)C1O (stereo not drawn) [Compound 201, 8-[4-phenylphenoxy]octyl] | 8 (≈ 4.27 µM) | 1 (≈ 0.534 µM) | 4 (≈ 2.14 µM)
4 | CCCCCCCC#Cc1ccc(CN[C@@]2(C)C[C@H](O[C@H]3[C@H](Oc4c5cc6cc4Oc4ccc(cc4Cl)[C@@H](O[C@H]4C[C@](C)(N)[C@@H](O)[C@H](C)O4)[C@@H]4NC(=O)[C@H](NC(=O)[C@@H]6NC(=O)[C@H](CC(N)=O)NC(=O)[C@H](NC(=O)[C@@H](CC(C)C)NC)[C@H](O)c6ccc(c(Cl)c6)O5)c5ccc(O)c(c5)-c5c(O)cc(O)cc5[C@@H](C(=O)O)NC4=O)O[C@H](CO)[C@@H](O)[C@@H]3O)O[C@@H](C)[C@@H]2O)cc1 [Compound 232, 4-[1-nonynyl]benzyl] | 32 (≈ 17.7 µM) | 2 (≈ 1.11 µM) | 8 (≈ 4.43 µM)
5 | CNC(CC(C)C)C(=O)NC1C(=O)NC(CC(N)=O)C(=O)NC2C(=O)NC3C(=O)NC(C(=O)NC(C(=O)O)c4cc(O)cc(O)c4-c4cc3ccc4O)C(OC3CC(C)(N)C(O)C(C)O3)c3ccc(c(Cl)c3)Oc3cc2cc(c3OC2OC(CO)C(O)C(O)C2OC2CC(C)(NCc3ccc(NC(=O)c4ccc(F)cc4)cc3)C(O)C(C)O2)Oc2ccc(cc2Cl)C1O (stereo not drawn) [Compound 193, 4-[(4-fluorobenzoyl)amino]benzyl] | 1 (≈ 0.55 µM) | ≤ 0.06 | ≤ 0.06
6 | CNC(CC(C)C)C(=O)NC1C(=O)NC(CC(N)=O)C(=O)NC2C(=O)NC3C(=O)NC(C(=O)NC(C(=O)O)c4cc(O)cc(O)c4-c4cc3ccc4O)C(OC3CC(C)(N)C(O)C(C)O3)c3ccc(c(Cl)c3)Oc3cc2cc(c3OC2OC(CO)C(O)C(O)C2OC2CC(C)(NCc3ccc(-c4ccccc4[N+](=O)[O-])cc3)C(O)C(C)O2)Oc2ccc(cc2Cl)C1O (stereo not drawn) [Compound 102, 4-[2-nitrophenyl]benzyl] | 4 (≈ 2.22 µM) | ≤ 0.06 | 0.25 (≈ 0.139 µM)
7 | CNC(CC(C)C)C(=O)NC1C(=O)NC(CC(N)=O)C(=O)NC2C(=O)NC3C(=O)NC(C(=O)NC(C(=O)O)c4cc(O)cc(O)c4-c4cc3ccc4O)C(OC3CC(C)(N)C(O)C(C)O3)c3ccc(c(Cl)c3)Oc3cc2cc(c3OC2OC(CO)C(O)C(O)C2OC2CC(C)(NCc3ccc(Nc4ccccc4)cc3)C(O)C(C)O2)Oc2ccc(cc2Cl)C1O (stereo not drawn) [Compound 160, 4-anilinobenzyl] | 8 (≈ 4.51 µM) | ≤ 0.06 | 2 (≈ 1.13 µM)
